According to ChEMBL document CHEMBL6074641, “Polypharmacological Drug Design Guided by Integrating Phenotypic and Restricted Fragment Docking Strategies” (J Med Chem, 2024):
Calls of active or inactive are those of the source. No cut-off for these calls is given here.

What was measured:
Mus musculus [1] = assay: Anti-alzheimer activity against 8 month old 3xTg mouse model assessed as reduction in Tau aggregation at 2 to 10 mg/kg, po; assay type: functional, organism-based; details: dose 2-10 mg/kg
Mus musculus [2] = assay: Anti-alzheimer activity against 5 month old APP/PS1 transgenic mouse model assessed as […] at 10 mg/kg, po administered 4 times per week for 4 weeks measured after 2 days; assay type: functional, organism-based; details: time 30.0 day
Mus musculus [3] = assay: Anti-alzheimer activity against 8 month old 3xTg mouse model assessed as decrease in anxiety level at 2 to 10 mg/kg, po administered 4 times per week for 4 weeks; assay type: functional, organism-based; details: dose 2-10 mg/kg
hERG (KCNH2) = hERG (KCNH2) (Homo sapiens, UniProt Q12809); assay: Inhibition of human ERG expressed in CHO cells at 20 uM by Qpatch clamp method relative to control; assay type: toxicity, cell-based; details: CHO cells that express hERG
Chain of hERG (KCNH2) (Q12809 whole entry): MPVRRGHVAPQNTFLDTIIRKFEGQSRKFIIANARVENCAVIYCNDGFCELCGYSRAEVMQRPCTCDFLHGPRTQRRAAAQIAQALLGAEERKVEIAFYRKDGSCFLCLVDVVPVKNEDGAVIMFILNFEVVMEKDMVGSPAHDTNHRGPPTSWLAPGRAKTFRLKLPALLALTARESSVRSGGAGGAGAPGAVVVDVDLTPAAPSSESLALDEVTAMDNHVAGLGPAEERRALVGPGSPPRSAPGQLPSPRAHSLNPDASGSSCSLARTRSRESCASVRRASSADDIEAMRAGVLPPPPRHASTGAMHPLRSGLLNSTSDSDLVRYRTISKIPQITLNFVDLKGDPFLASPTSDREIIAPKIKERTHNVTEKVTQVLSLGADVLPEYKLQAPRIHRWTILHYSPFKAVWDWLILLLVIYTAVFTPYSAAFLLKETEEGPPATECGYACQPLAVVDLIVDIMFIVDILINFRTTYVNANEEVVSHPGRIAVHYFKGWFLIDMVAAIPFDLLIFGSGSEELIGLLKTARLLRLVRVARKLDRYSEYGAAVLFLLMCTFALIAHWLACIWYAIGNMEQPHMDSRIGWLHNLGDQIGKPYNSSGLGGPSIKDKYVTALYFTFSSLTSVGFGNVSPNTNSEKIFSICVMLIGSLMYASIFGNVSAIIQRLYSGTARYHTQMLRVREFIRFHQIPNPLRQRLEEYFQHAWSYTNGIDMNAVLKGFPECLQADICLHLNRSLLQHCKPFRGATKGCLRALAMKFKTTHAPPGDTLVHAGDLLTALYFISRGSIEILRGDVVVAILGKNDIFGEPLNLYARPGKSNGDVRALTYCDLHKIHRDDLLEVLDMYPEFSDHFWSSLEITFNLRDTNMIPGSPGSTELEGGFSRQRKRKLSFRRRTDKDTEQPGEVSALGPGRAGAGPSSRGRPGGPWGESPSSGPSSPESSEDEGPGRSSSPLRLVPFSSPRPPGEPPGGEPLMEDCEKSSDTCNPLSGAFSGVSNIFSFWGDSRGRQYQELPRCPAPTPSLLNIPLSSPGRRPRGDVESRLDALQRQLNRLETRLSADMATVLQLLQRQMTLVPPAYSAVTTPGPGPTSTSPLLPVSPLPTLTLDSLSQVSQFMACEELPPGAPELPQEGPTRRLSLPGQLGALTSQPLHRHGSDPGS

Microglia [4] = assay: Anti-necroptosis activity in LPS/zVAD stimulated mouse primary microglia assessed as reversal of translucent cytoplasm by TEM analysis; assay type: functional, cell-based
Mus musculus [5] = assay: Anti-necroptosis activity in 3xTg mouse hippocampus assessed as reduction in Iba activation at 2 to 10 mg/kg, po; assay type: functional, organism-based; details: dose 2-10 mg/kg
Mus musculus [6] = assay: Anti-alzheimer activity against 8 month old 3xTg mouse model assessed as decrease in restlessness at 2 to 10 mg/kg, po administered 4 times per week for 4 weeks; assay type: functional, organism-based; details: dose 2-10 mg/kg
Mus musculus [7] = assay: Anti-alzheimer activity against 8 month old 3xTg mouse model assessed as improved cognitive ability at 2 mg/kg, po administered 4 times per week for 4 weeks; assay type: functional, organism-based
Microglia [8] = assay: Anti-necroptosis activity in LPS/zVAD stimulated mouse primary microglia assessed as reversal of severe membrane disruption by TEM analysis; assay type: functional, cell-based
Cytochrome P450 3A4 = Cytochrome P450 3A4 (Homo sapiens, UniProt P08684); assay: Inhibition of CYP3A4 (unknown origin) using midazolam as substrate incubated for 10 mins in presence of NADPH by LC-MS/MS analysis; assay type: ADME
Chain of Cytochrome P450 3A4 (P08684 whole entry): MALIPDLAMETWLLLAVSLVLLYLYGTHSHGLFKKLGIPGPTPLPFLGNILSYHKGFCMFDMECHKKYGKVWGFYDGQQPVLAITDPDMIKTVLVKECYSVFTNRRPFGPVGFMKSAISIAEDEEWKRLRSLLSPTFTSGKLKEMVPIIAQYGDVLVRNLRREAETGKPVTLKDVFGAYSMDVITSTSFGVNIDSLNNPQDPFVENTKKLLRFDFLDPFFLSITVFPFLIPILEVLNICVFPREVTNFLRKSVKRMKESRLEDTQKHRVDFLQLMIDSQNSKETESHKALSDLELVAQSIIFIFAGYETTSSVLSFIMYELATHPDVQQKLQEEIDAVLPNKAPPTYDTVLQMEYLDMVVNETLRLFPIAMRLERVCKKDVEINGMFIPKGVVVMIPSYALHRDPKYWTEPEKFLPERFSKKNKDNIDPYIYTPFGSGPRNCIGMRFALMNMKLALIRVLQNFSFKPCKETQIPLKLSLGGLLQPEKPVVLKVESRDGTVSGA

Mus musculus [9] = assay: Anti-alzheimer activity against 5 month old APP/PS1 transgenic mouse model assessed as improved spatial preference towards annulus at 10 mg/kg, po administered 4 times per week for 4 weeks; assay type: functional, organism-based
Microglia [10] = assay: Anti-necroptosis activity in LPS/zVAD stimulated mouse primary microglia transfected with Myc-tagged ALK plasmid assessed as protection of microglia cells at 100 nM; assay type: functional, cell-based
Mus musculus [11] = assay: Downregulation of RIPK1 phosphorylation in 3xTg mouse hippocampus at 2 to 10 mg/kg, po by immunohistochemistry analysis; assay type: functional, organism-based; details: dose 2-10 mg/kg
Microglia [12] = assay: Anti-necroptosis activity in LPS/zVAD stimulated mouse primary microglia transfected with HA-tagged MAP4K4 plasmid assessed as protection of microglia cells at 100 nM; assay type: functional, cell-based
Cytochrome P450 2C19 = Cytochrome P450 2C19 (Homo sapiens, UniProt P33261); assay: Inhibition of CYP2C19 (unknown origin) using S-mephenytoin as substrate incubated for 10 mins in presence of NADPH by LC-MS/MS analysis; assay type: ADME
Chain of Cytochrome P450 2C19 (P33261 whole entry): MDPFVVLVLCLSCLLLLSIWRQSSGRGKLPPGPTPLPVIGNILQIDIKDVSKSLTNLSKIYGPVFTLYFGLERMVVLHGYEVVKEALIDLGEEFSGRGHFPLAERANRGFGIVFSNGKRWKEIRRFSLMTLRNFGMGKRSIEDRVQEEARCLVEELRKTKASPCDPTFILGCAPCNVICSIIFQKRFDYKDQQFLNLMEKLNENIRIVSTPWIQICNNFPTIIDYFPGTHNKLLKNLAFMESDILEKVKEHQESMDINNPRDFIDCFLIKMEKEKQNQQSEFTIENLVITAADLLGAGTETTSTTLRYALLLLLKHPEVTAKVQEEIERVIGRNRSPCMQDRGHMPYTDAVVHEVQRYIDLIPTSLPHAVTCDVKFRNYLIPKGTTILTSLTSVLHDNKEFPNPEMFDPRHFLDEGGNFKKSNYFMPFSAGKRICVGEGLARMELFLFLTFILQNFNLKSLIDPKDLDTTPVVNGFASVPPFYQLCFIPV

Microglia [13] = assay: Anti-necroptosis activity in LPS/zVAD stimulated mouse primary microglia overexpressed with RIPK1 assessed as reversal of mitochondrial swelling by TEM analysis; assay type: functional, cell-based
Mus musculus [14] = assay: Anti-alzheimer activity against 8 month old 3xTg mouse model assessed as improved learning ability at 2 to 10 mg/kg, po administered 4 times per week for 4 weeks; assay type: functional, organism-based; details: dose 2-10 mg/kg
Mus musculus [15] = assay: Anti-alzheimer activity against 8 month old 3xTg mouse model assessed as improved spatial preference towards annulus at 10 mg/kg, po administered 4 times per week for 4 weeks; assay type: functional, organism-based
Mus musculus [16] = assay: Downregulation of MAP4K4 phosphorylation in 3xTg mouse hippocampus at 2 to 10 mg/kg, po by immunohistochemistry analysis; assay type: functional, organism-based; details: dose 2-10 mg/kg
[17] = Half-life in C57BL/6 mouse plasma at 10 mg/kg, po measured upto 24 hrs by LC-MS/MS analysis; assay type: ADME, organism-based
Mus musculus [18] = assay: Anti-alzheimer activity in 8 month old 3xTg mouse model assessed as reversal of transcriptomic changes in Pttg1 at 10 mg/kg, po; assay type: functional, organism-based
Cytochrome P450 2C8 = Cytochrome P450 2C8 (Homo sapiens, UniProt P10632); assay: Inhibition of CYP2C8 (unknown origin) incubated for 10 mins in presence of NADPH by LC-MS/MS analysis; assay type: ADME
Chain of Cytochrome P450 2C8 (P10632 whole entry): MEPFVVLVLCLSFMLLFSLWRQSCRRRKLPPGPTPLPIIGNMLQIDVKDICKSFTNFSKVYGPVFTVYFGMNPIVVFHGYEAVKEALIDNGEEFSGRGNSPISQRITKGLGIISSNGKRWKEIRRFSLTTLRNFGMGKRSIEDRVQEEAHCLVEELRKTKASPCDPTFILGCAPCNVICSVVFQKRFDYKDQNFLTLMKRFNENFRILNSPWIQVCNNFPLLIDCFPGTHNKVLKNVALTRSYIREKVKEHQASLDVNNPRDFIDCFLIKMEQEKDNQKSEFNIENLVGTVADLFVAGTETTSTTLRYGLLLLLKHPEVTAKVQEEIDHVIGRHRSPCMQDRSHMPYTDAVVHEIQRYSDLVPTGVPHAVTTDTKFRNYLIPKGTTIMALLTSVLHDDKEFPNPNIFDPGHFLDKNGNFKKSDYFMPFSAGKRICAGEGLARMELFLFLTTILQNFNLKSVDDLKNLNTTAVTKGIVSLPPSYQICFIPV

[19] = biological target: ALK tyrosine kinase receptor (Mus musculus) (UniProt P97793); assay: Inhibition of ALK activation in mouse BV-2 cells by Western blotting analysis; assay type: cell-based; details: dose 4-100 nM
Chain of ALK tyrosine kinase receptor (Mus musculus) (P97793 whole entry): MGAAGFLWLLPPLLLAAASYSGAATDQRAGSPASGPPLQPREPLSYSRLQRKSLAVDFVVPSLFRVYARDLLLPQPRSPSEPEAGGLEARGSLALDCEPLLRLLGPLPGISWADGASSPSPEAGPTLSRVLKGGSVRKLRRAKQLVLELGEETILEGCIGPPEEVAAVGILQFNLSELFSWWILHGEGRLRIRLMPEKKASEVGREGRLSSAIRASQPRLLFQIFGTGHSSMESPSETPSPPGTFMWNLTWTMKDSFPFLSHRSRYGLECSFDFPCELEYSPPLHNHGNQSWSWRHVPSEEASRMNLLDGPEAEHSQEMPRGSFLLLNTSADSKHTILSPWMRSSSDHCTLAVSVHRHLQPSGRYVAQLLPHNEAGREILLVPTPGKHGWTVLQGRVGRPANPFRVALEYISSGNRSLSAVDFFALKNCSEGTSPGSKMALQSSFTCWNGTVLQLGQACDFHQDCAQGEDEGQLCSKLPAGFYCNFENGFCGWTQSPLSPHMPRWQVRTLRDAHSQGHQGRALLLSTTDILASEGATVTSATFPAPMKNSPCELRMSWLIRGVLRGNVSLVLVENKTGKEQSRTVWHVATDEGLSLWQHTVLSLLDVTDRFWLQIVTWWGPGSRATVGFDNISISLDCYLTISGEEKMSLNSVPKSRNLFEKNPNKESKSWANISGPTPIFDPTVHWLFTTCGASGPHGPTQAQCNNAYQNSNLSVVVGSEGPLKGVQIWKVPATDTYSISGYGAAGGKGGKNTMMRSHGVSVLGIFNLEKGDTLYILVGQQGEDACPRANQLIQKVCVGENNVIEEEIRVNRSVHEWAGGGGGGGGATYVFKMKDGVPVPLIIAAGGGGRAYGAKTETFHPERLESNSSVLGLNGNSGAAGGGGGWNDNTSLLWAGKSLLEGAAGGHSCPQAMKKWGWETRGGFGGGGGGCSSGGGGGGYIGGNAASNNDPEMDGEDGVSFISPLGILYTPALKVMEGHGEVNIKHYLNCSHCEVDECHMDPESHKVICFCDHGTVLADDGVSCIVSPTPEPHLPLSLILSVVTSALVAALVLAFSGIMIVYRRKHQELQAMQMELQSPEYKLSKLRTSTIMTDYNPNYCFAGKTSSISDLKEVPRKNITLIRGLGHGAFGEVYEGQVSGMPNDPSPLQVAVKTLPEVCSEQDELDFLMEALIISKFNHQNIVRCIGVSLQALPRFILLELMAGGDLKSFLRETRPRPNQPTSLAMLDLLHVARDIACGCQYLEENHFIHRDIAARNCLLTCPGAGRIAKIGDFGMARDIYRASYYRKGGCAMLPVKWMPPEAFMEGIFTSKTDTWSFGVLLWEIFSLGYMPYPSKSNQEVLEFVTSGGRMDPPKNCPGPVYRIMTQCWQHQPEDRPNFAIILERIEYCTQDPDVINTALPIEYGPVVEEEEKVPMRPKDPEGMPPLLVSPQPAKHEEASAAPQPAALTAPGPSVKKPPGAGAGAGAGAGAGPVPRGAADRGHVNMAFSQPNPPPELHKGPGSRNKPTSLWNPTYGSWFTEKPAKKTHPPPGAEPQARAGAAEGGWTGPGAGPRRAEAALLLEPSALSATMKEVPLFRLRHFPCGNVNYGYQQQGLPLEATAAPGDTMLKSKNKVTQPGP

Microglia [20] = assay: Anti-necroptosis activity in LPS/zVAD stimulated mouse primary microglia overexpressed with RIPK1 assessed as reversal of severe membrane disruption by TEM analysis; assay type: functional, cell-based
[21] = Half-life in C57BL/6 mouse brain at 10 mg/kg, po measured upto 24 hrs by LC-MS/MS analysis; assay type: ADME, organism-based
[22] = biological target: Mitogen-activated protein kinase kinase kinase kinase 4 (Homo sapiens, UniProt O95819); assay: Inhibition of recombinant MAP4K4 (1 to 328 residues) (unknown origin) expressed in Escherichia coli BL21([…]) using MBP as substrate preincubated for 15 mins followed by substrate and ATP addition and measured after 90 mins by ADP-Glo luminescence […] assay
[23] = Tmax in C57BL/6 mouse plasma at 10 mg/kg, po measured upto 24 hrs by LC-MS/MS analysis; assay type: ADME, organism-based
BV-2 [24] = assay: Cytotoxicity against mouse BV-2 cells at 10 uM; assay type: toxicity, cell-based; details: bv-2, 10 µM
[25] = Unbound plasma protein binding in human incubated for 24 hrs by HPLC based equilibrium dialysis method; assay type: ADME, cell-free
Cytochrome P450 1A2 = Cytochrome P450 1A2 (Homo sapiens, UniProt P05177); assay: Inhibition of CYP1A2 (unknown origin) using phenacetin as substrate incubated for 10 mins in presence of NADPH by LC-MS/MS analysis; assay type: ADME
Chain of Cytochrome P450 1A2 (P05177 whole entry): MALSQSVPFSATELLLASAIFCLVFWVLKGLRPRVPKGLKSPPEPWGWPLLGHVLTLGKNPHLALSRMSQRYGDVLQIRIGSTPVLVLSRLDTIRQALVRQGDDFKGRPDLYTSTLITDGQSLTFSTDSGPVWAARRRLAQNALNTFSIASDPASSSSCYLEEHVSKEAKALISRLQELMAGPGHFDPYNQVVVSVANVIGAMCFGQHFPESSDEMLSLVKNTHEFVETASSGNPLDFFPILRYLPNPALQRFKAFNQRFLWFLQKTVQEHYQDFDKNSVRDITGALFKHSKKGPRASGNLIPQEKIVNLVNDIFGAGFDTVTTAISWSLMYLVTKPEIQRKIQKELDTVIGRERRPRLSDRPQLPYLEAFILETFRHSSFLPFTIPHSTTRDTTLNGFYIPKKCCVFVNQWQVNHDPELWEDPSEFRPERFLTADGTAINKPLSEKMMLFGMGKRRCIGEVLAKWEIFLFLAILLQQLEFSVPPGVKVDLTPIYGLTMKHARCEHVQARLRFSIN

Microglia [26] = assay: Anti-necroptosis activity in LPS/zVAD stimulated mouse primary microglia transfected with flag-tagged RIPK1 plasmid assessed as protection of microglia cells at 100 nM; assay type: functional, cell-based
[27] = AUC(0 to t) in C57BL/6 mouse plasma at 10 mg/kg, po measured upto 24 hrs by LC-MS/MS analysis; assay type: ADME, organism-based
[28] = biological target: Mitogen-activated protein kinase kinase kinase kinase 4 (Mus musculus) (UniProt P97820); assay: Inhibition of MAP4K4 activation in mouse BV-2 cells by Western blotting analysis; assay type: cell-based; details: dose 4-100 nM
[29] = AUC(0 to t) in C57BL/6 mouse brain at 10 mg/kg, po measured upto 24 hrs by LC-MS/MS analysis; assay type: ADME, organism-based
BV-2 [30] = assay: Inhibition of MLKL activation in mouse BV-2 cells by Western blotting analysis; assay type: cell-based; details: dose 4-100 nM
[31] = Unbound plasma protein binding in mouse incubated for 24 hrs by HPLC based equilibrium dialysis method; assay type: ADME, cell-free
Microglia [32] = assay: Anti-necroptosis activity in LPS/zVAD stimulated mouse primary microglia assessed as reversal of mitochondrial swelling by TEM analysis; assay type: functional, cell-based
[33] = biological target: ALK tyrosine kinase receptor (Homo sapiens, UniProt Q9UM73); assay: Inhibition of ALK (unknown origin) at 1 uM
[34] = Metabolic stability in human liver microsomes assessed as clearance at 1 uM measured upto 60 mins in presence of NADPH and UDPGA by LC-MS/MS analysis; assay type: ADME, Microsome; details: 1 h

- IC50 (Cytochrome P450 3A4): > 10 µM
- IC50 (Cytochrome P450 2C19): 8.3 µM
- half-life [17]: 13.3 h
- IC50 (Cytochrome P450 2C8): 6.8 µM
- inhibition [19]: Dose-dependent-effect
- half-life [21]: 8.46 h
- Tmax [23]: 2.93 h
- Fu [25]: 0.1%
- IC50 (Cytochrome P450 1A2): > 10 µM
- AUC(0-t) at 24 h [27]: 10900 ng·h/mL
- inhibition [28]: Dose-dependent-effect
- AUC(0-t) at 24 h [29]: 2970 ng·h/mL
- Fu [31]: 0.8%
- inhibition [33]: Active
- CLH [34]: 7 µL/min/mg
Structure (SMILES): Cc1cc(F)cc(Nc2ncc(Nc3ccc(SC(F)(F)F)cc3)cc2C(N)=O)c1
- Activity (Mus musculus [1]): Active
- Activity (Mus musculus [2]): Active
- Activity (Mus musculus [3]): Active
- inhibition at 20 µM (hERG (KCNH2)): 11.3%
- Activity (Microglia [4]): Active
- Activity (Mus musculus [5]): Active
- Activity (Mus musculus [6]): Active
- Activity (Mus musculus [7]): Active; Activity More Potent Than Nec-1
- Activity (Microglia [8]): Active
- Activity (Mus musculus [9]): Active
- Activity (Microglia [10]): inactive
- Activity (Mus musculus [11]): Active; Activity More Potent Than Nec-1
- Activity (Microglia [12]): inactive
- Activity (Microglia [13]): inactive
- Activity (Mus musculus [14]): Active
- Activity (Mus musculus [15]): Active
- Activity (Mus musculus [16]): Active; Activity More Potent Than Nec-1
- Activity (Mus musculus [18]): Active
- Activity (Microglia [20]): inactive
- IC50 [22]: 0.41 µM
- Activity (BV-2 [24]): Toxic
- Activity (Microglia [26]): inactive
- inhibition (BV-2 [30]): Dose-dependent-effect
- Activity (Microglia [32]): Active
